What all share (assay type): cell-based
Experiment [1] deals with Pyricularia oryzae. Kind of experiment: microbe, parasite or virus in culture. As to conditions: for Observed efficacy: single active; for inhibition of growth at 4 ppm / inhibition of growth at 0.016 ppm / inhibition of growth at 0.063 ppm / inhibition of growth at 0.25 ppm / inhibition of growth at 1 ppm: Pyricularia oryzae, 168 h, read-out: Observed efficacy.
Experiment [2] relates to Septoria tritici. As to the kind of experiment: Activity against leaf blotch on wheat caused by Septoria tritici (microtiter plate). As to conditions: single active.
Experiment [3] deals with Botrytis cinerea. As to the kind of experiment: Activity against the grey mold Botrytis cinerea in the microtiterplate test. As to conditions: single active.
The mark [4] stands for this setting: Botrytis cinerea, 168 h, read-out: Observed efficacy.
[5] abbreviates: Zymoseptoria tritici, 168 h, 0.25 ppm, read-out: Observed efficacy.
The mark [6] stands for this setting: Zymoseptoria tritici, 168 h, read-out: Observed efficacy.
Setting [7] is: Zymoseptoria tritici, 168 h, 0.016 ppm, read-out: Observed efficacy.
Where [8] appears, read: Zymoseptoria tritici, 168 h, 0.063 ppm, read-out: Observed efficacy.
Setting [9] is: Botrytis cinerea, 168 h, 0.063 ppm, read-out: Observed efficacy.

The structures appear in SMILES notation.

As to `O=C(NC1CCC1c1ccc(Cl)cc1Cl)c1cccnc1C(F)(F)F` (stereo in doubt) [Cyclobutrifuram, cyclobutrifluram], the Observed efficacy amounted to 14% in experiment [1] (1 ppm) and 34% in experiment [2] (0.25 ppm).

As to `CO/C=C(/C(=O)OC)c1ccccc1Oc1cc(Oc2ccccc2C#N)ncn1` [Azoxystrobin, azoxystrobin], the Observed efficacy in experiment [1] (0.016 ppm) is recorded as 59%; in experiment [2] (0.016 ppm) it was 3%; in experiment [2] (0.063 ppm), 43%.

`O=C(Nc1ccccc1-c1ccc(Cl)cc1)c1cccnc1Cl` [Boscalid, boscalid]: the inhibition of growth at 1 ppm came out at 76% in experiment [3] (setting [4]) and 62% in experiment [2] (setting [6]). The inhibition of growth at 4 ppm in experiment [1] came out at 12%. For the same molecule, the inhibition of growth at 0.25 ppm in experiment [2] (setting [5]) stood at 21%.

Turning to `Cc1cc(C2=NC(C)(C)Oc3c2ccc(F)c3F)cnc1C(F)F` [Compound 1-1], the inhibition of growth at 1 ppm in experiment [3] (setting [4]) amounted to 33%; in experiment [1], 65%. For the same molecule, the inhibition of growth at 0.016 ppm stood at 8% in experiment [1] and 3% in experiment [2] (setting [7]). The inhibition of growth at 0.063 ppm in experiment [1] and in experiment [2] (setting [8]) was 10% in each case. Besides, the results for the inhibition of growth at 0.25 ppm in experiment [1] and in experiment [2] (setting [5]) were 21% and 22%, respectively. Besides, the inhibition of growth at 0.004 ppm in experiment [2] (Zymoseptoria tritici, 168 h, 0.004 ppm, read-out: Observed efficacy) worked out at 4%.

On to `Cc1cc(C2=NC(C)(C)Oc3c(F)cccc32)cnc1C(F)F` [Compound 1-2], for which the inhibition of growth at 1 ppm stood at 19% in experiment [3] (setting [4]), 31% in experiment [1] and 0% in experiment [2] (setting [6]). Also, in experiment [1], the inhibition of growth at 0.063 ppm stood at 4%. Also, the inhibition of growth at 0.25 ppm is 15% in experiment [1] and 0% in experiment [2] (setting [5]).

As to `COc1ccc2c(c1F)OC(C)(C)N=C2c1cnc(C(F)F)c(C)c1` [Compound 1-3], the inhibition of growth at 1 ppm amounted to 12% in experiment [3] (setting [4]), 12% in experiment [1] and 18% in experiment [2] (setting [6]). For the same molecule, the inhibition of growth at 0.063 ppm in experiment [1] is 0%; in experiment [2] (setting [8]), 21%. In experiment [2] (setting [5]), the inhibition of growth at 0.25 ppm stood at 20%.

With `CC1COC(Cn2cncn2)(c2ccc(Oc3ccc(Cl)cc3)cc2Cl)O1` (stereo not drawn) [Difenoconazol, difenoconazole], the inhibition of growth at 0.063 ppm in experiment [3] (setting [9]) came to 8%.

Regarding `CNC(=O)/C(=N/OC)c1ccccc1COc1cc(C)ccc1C` [Dimoxystrobin, dimoxystrobin], the Observed efficacy in experiment [3] (0.25 ppm) was found to be 2%.

As to `COc1ccnc(C(=O)N[C@@H](C)C(=O)O[C@@H](C)C(c2ccc(F)cc2)c2ccc(F)cc2)c1OC(C)=O` [Florylpicoxamid, florylpicoxamid], the Observed efficacy in experiment [1] (0.004 ppm) stood at 28%; in experiment [1] (0.016 ppm) it was 70%; in experiment [2] (0.016 ppm), 47%.

Take `O=[N+]([O-])c1cc(C(F)(F)F)c(Cl)c([N+](=O)[O-])c1Nc1ncc(C(F)(F)F)cc1Cl` [Fluazinam, fluazinam]: the figures for the inhibition of growth at 0.063 ppm in experiment [1] and in experiment [2] (setting [8]) were 19% and 5%, respectively.

For the molecule `N#Cc1c[nH]cc1-c1cccc2c1OC(F)(F)O2` [Fludioxonil, fludioxonil], in experiment [1], the inhibition of growth at 0.016 ppm turned out to be 14%, the inhibition of growth at 0.063 ppm is 45% and the inhibition of growth at 0.25 ppm came to 69%. In experiment [2] (setting [7]), the inhibition of growth at 0.016 ppm was found to be 1%.

On to `O=C(NCCc1ncc(C(F)(F)F)cc1Cl)c1ccccc1C(F)(F)F` [Fluopyram, fluopyram], for which the inhibition of growth at 0.25 ppm in experiment [2] (setting [5]) came to 33%.

Take `Cn1cc(C(=O)Nc2ccccc2-c2cc(F)c(F)c(F)c2)c(C(F)F)n1` [Fluxapyroxad, fluxapyroxad]: the Observed efficacy in experiment [3] (0.063 ppm) amounted to 29%; in experiment [2] (0.063 ppm) it was 27%.

Take `CC(C)NC(=O)N1CC(=O)N(c2cc(Cl)cc(Cl)c2)C1=O` [Iprodion, iprodione]: the inhibition of growth at 1 ppm was found to be 52% in experiment [3] (setting [4]) and 9% in experiment [2] (setting [6]). In experiment [1], the inhibition of growth at 4 ppm worked out at 42%.

For `Cc1cc(OC(C)C)ccc1C(=O)C(C)(C)NC(=O)c1sccc1C` [Isofetamid, isofetamid], the Observed efficacy amounted to 15% in experiment [1] (4 ppm) and 45% in experiment [2] (0.25 ppm).

`Cc1cccc(-n2nnn(C)c2=O)c1COc1ccn(-c2ccc(Cl)cc2)n1` [Methyltetraprol, metyltetraprole]: the results for the Observed efficacy in experiment [1] (0.016 ppm) and in experiment [2] (0.016 ppm) were 38% and 51%, respectively.

As to `CC(C)CC(C)c1sccc1NC(=O)c1cn(C)nc1C(F)(F)F` (stereo not drawn) [Penthiopyrad, penthiopyrad], the inhibition of growth at 0.063 ppm in experiment [3] (setting [9]) is 10%; in experiment [2] (setting [8]), 33%.

Take `OC(Cc1ccccc1Cl)(Cn1nc[nH]c1=S)C1(Cl)CC1` (stereo not drawn) [Prothioconazol, prothioconazole]: the inhibition of growth at 1 ppm in experiment [3] (setting [4]) came to 22%; in experiment [1], 15%. For the same molecule, the inhibition of growth at 4 ppm in experiment [3] (Botrytis cinerea, 168 h, 4 ppm, read-out: Observed efficacy) worked out at 58%. The inhibition of growth at 0.25 ppm in experiment [2] (setting [5]) was 66%.

As for `CON(C(=O)c1cn(C)nc1C(F)F)C(C)Cc1c(Cl)cc(Cl)cc1Cl` (stereo not drawn) [Pydiflumetofen, pydiflumetofen], the Observed efficacy amounted to 15% in experiment [3] (0.063 ppm) and 67% in experiment [2] (0.016 ppm).

`CC(C)(C)C(O)(CCc1ccc(Cl)cc1)Cn1cncn1` (stereo not drawn) [Tebuconazol, tebuconazole]: the inhibition of growth at 0.25 ppm was determined as 38% in experiment [3] (Botrytis cinerea, 168 h, 0.25 ppm, read-out: Observed efficacy); 10% in experiment [1]; 50% in experiment [2] (setting [5]).

With `Cc1ccc(NC(=O)c2snnc2C)cc1Cl` [Tiadinil, tiadinil], in experiment [2] (Zymoseptoria tritici, 168 h, 4 ppm, read-out: Observed efficacy), the inhibition of growth at 4 ppm came to 10%.

For the origin of these results see patent publication US20250338849A1 (priority 2022, published 2025).
